# Measured values reported in publication PMC9368981, “The γ-Core Motif Peptides of AMPs from Grasses Display Inhibitory Activity against Human and Plant Pathogens” (International Journal of Molecular Sciences, 2022).
# Where a SMILES comes first, the peptide text is derived from it. Where no end group is shown, it is not given here.
# Experiments:
# Cr. neoformans cells [1] = assay: Propidium iodide staining, fluorescence microscopy; type: cell-based, Cryptococcus neoformans; details: peptide 300 µM, 30 °C, 1 h, 0.03 mM PI 15 min
# Method: (§1) Their ability to disturb the integrity of pathogen membranes was assayed by staining with propidium iodide of C. albicans and Cr. neoformans cells preliminarily incubated with the peptides. The results were visualized by fluorescent microscopy and quantified by flow cytometry (Figure 5, Figure 6 and Figure 7).
# (§2) Staining of yeast cells with propidium iodide in the presence of the γ-core peptides was carried out according to the protocol described earlier. C. albicans or Cr. neoformans cells (24 h culture in YPD-P at a cell concentration of 2 × 10^8/mL) were incubated with the peptide at a concentration of 300 µM at 30 °C for 1 h. After incubation, 1 mL of the cells was stained with 0.03 mM propidium iodide (Sigma, St. Louis, MO, USA). The staining proceeded for 15 min at 30 °C. The fluorescence was recorded on an AXIO Imager A1 fluorescence microscope (ZEISS, Göttingen, Germany) using a Zeiss filter set 56 HE.
# C. albicans cells = assay: Propidium iodide staining, fluorescence microscopy; type: cell-based, Candida albicans; details: peptide 300 µM, 30 °C, 1 h, 0.03 mM PI 15 min
# Method: as §1, §2
# [2] = tested on: Candida albicans VKM Y-2994; type: cell-based; details: for Inhibition of C. albicans at the highest tested concentration: inhibition curves (Figure 4), highest tested concentration (300 µM)
# Method: (§3) The antimicrobial activity of synthetic peptides was tested against a panel of human and plant pathogens. Among them were the yeasts Candida albicans VKM Y-2994 and Cryptococcus neoformans VKM Y-2755, the plant pathogenic bacteria Clavibacter michiganensis subsp. michiganensis VKM Ac-1403, Pseudomonas savastanoi pv. savastanoi VKM B-1546 and Pectobacterium carotovorum subsp. carotovorum VKM B-1247, and four Fusarium species (F. oxysporum VKM F-137, F. culmorum VKM F-2303, F. solani VKM F-142 and F. verticillioides VKM F-670), which cause diseases in plants and humans. The antimicrobial activity was first measured at the peptide concentration of 300 µM (Figure 3).
# (§4) The antimicrobial activity of synthetic peptides was tested against the yeasts Candida albicans VKM Y-2994 and Cryptococcus neoformans VKM Y-2755, the bacteria Pseudomonas savastanoi pv. savastanoi VKM B-1546, Pectobacterium carotovorum subsp. carotovorum VKM B-1247 and Clavibacter michiganensis subsp. michiganensis VKM Ac-1403, and four Fusarium species: F. culmorum VKM F-2303, F. oxysporum VKM F-137, F. solani VKM F-142 and F. verticillioides VKM F-670. All cultures were obtained from the All-Russian Collection of Microorganisms (VKM). The details of the production and storage of cultures of microorganisms used in this study are described at the VKM Home page. Antimicrobial assays were accomplished according to the procedure described earlier. In short, yeasts were grown on the YPD-P medium and the bacteria P. carotovorum and Cl. michiganensis were cultured on a modified YPD-P medium. The Fusarium fungi were grown on potato dextrose agar at 25 °C for 7–8 days, and spores were washed off from the surface of the mycelia with sterile, distilled water. The antimicrobial activity of the peptides was measured in immunoassay microtiter plates according to the protocol of Broekaert et al.. With yeasts and bacteria, each well contained 10 µL of the tested peptide solution (final concentrations of 10–300 µM) in water, 80 µL of the medium and 10 µL of the microbial suspension. The plates were incubated at 30 °C for 24 h, and the absorbance of the suspension was measured on an Efos 9305 spectrophotometer (Sapphire, Moscow, Russia) at 594 nm. For Fusarium species, the wells of a microtiter plate were filled with 90 µL of the fungal spore suspension in half-strength potato dextrose broth at a concentration of 2000–3000 spores in 100 µL and 10 µL of aqueous solutions of peptides at final concentrations of 10–300 µM. After 38 h of incubation, the absorbance was recorded at 595 nm on a FilterMax F5 Multi-Mode Microplate Reader (Molecular Devices, San Jose, CA, USA). Antimicrobial activity is expressed in IC50 values, which show the concentration necessary for 50% inhibition of the pathogen growth; this was determined from a graph showing the activity dependence on peptide concentration.
# (§5) For each pathogen, experiments on the peptide antimicrobial activity evaluation were carried out in triplicate per treatment. Mean values, standard deviations (SD), and the significance of differences (p ≤ 0.05) of the means between treatments and controls (t-test for independent variables) were determined using STATISTICA v. 6.1 software (StatSoft Inc., Tulsa, OK, USA).
# [3] = tested on: F. verticillioides VKM F-670; type: cell-based, Fusarium verticillioides
# Method: as §3, §4, §5
# [4] = tested on: Pectobacterium carotovorum subsp. carotovorum VKM B-1247; details: 30 °C, 24 h, absorbance 594 nm
# Method: All cultures were obtained from the All-Russian Collection of Microorganisms (VKM).
# Mean values, standard deviations (SD), and the significance of differences (p ≤ 0.05) of the means between treatments and controls (t-test for independent variables) were determined using […] v. 6.1 software (StatSoft Inc., Tulsa, OK, USA).
# Cr. neoformans cells [5] = assay: Propidium iodide penetration, flow cytometry; type: cell-based, Cryptococcus neoformans; details: 28 °C, 2 h; for Penetration of propidium iodide (PI) into Cr. neoformans cells: peptide 300 µM in water, PI 2 µg/mL, FL2 (488/585 nm); for Number of Cr. neoformans cells in flow cytometry: peptide 300 µM
# Method: as §1
# For flow cytometry experiments with Cr. neoformans, the yeasts were grown on the YPD medium at 28 °C for 48 h. After that, the cells were centrifuged at 12,000× g for 3 min, washed with MiliQ water and incubated with the peptides dissolved in water at a concentration of 300 µM at 28 °C for 2 h. The cells were stained with propidium iodide by direct addition of the dye to the incubation medium (final concentration of 2 µg/mL) and measured on a NovoCyte Flow cytometer (Agilent, Santa Clara, CA, USA) using the channel FL2 (488 nm excitation and 585 nm emission). The sample without peptides was used as a control.
# [6] = tested on: Cryptococcus neoformans VKM Y-2755; type: cell-based
# Method: as §3, §4, §5
# [7] = tested on: Pseudomonas savastanoi pv. savastanoi VKM B-1546; type: cell-based; details: 300 µM peptide; 30 °C, 24 h, absorbance 594 nm; vs control without peptide; triplicate, mean
# Method: as §3, §4, §5
# [8] = inhibition curves (Figure 4), highest tested concentration (300 µM)
compound,measurement,setting,value
C[C@@H](O)[C@H](NC(=O)[C@H](CS)NC(=O)[C@H](Cc1ccccc1)NC(=O)[C@H](CS)NC(=O)[C@H](CCCNC(=N)N)NC(=O)[C@H](CCCNC(=N)N)NC(=O)[C@H](CCCNC(=N)N)NC(=O)[C@H](Cc1ccccc1)NC(=O)CNC(=O)[C@H](CCCNC(=N)N)NC(=O)[C@H](CS)NC(=O)[C@H](CCCCN)NC(=O)CN)C(=O)N[C@H](C(=O)N[C@@H](Cc1c[nH]cn1)C(=O)N[C@@H](CS)C(=O)N[C@@H](Cc1c[nH]cn1)C(=O)N[C@@H](Cc1c[nH]cn1)C(=O)O)[C@@H](C)O [DEFL1-16_65-82] (H-GKCRGFRRRCFCTTHCHH-OH; N-terminus and C-terminus assumed),Membrane permeabilization of Cr. neoformans cells (PI staining),Cr. neoformans cells [1],induced membrane permeabilization
same,Membrane permeabilization of C. albicans cells (PI staining),C. albicans cells,induced membrane permeabilization
CSCC[C@H](NC(=O)[C@H](CS)NC(=O)[C@H](C)NC(=O)CNC(=O)[C@H](CCCNC(=N)N)NC(=O)[C@H](CCCCN)NC(=O)[C@H](C)NC(=O)[C@H](CCCNC(=N)N)NC(=O)[C@H](CO)NC(=O)[C@H](CCCNC(=N)N)NC(=O)[C@H](C)NC(=O)[C@H](CS)NC(=O)[C@H](CCCNC(=N)N)NC(=O)[C@@H](NC(=O)[C@H](C)NC(=O)[C@H](CS)NC(=O)[C@H](CCCCN)NC(=O)CN)C(C)C)C(=O)N[C@@H](CCCCN)C(=O)O [TkSN1_39-57] (H-GKCAVRCARSRAKRGACMK-OH; N-terminus and C-terminus assumed),Inhibition of C. albicans at the highest tested concentration,[2],complete inhibition
same,Membrane permeabilization of Cr. neoformans cells (PI staining),Cr. neoformans cells [1],induced membrane permeabilization
same,Membrane permeabilization of C. albicans cells (PI staining),C. albicans cells,induced membrane permeabilization
C[C@@H](O)[C@H](NC(=O)[C@H](CS)NC(=O)[C@H](CCCNC(=N)N)NC(=O)[C@H](CCCNC(=N)N)NC(=O)[C@H](Cc1ccccc1)NC(=O)[C@H](CCCCN)NC(=O)[C@H](CS)NC(=O)[C@H](Cc1ccc(O)cc1)NC(=O)CN)C(=O)N[C@@H](CS)C(=O)N[C@@H](CCC(N)=O)C(=O)N[C@@H](CCCNC(=N)N)C(=O)N[C@@H](CCC(=O)O)C(=O)N[C@@H](CS)C(=O)O [DEFL1-32_55-68] (H-GYCKFRRCTCQREC-OH; N-terminus and C-terminus assumed),Inhibition of C. albicans at the highest tested concentration,[2],92%
same,Membrane permeabilization of Cr. neoformans cells (PI staining),Cr. neoformans cells [1],induced membrane permeabilization
same,Membrane permeabilization of C. albicans cells (PI staining),C. albicans cells,induced membrane permeabilization
C[C@H](NC(=O)[C@@H](N)CS)C(=O)NCC(=O)N[C@@H](CCCNC(=N)N)C(=O)NCC(=O)N[C@@H](CCC(N)=O)C(=O)N1CCC[C@H]1C(=O)N[C@@H](Cc1ccc(O)cc1)C(=O)N[C@H](C(=O)NCC(=O)N[C@@H](CO)C(=O)NCC(=O)N[C@@H](CS)C(=O)O)[C@@H](C)O [DEFL4-8_82-94] (H-CAGRGQPYTGSGC-OH; N-terminus and C-terminus assumed),Maximum inhibition of F. verticillioides at the highest tested concentration,[3]; [8],26%
same,IC50,"[3]; peptide 10–300 µM, 38 h, absorbance 595 nm, from activity vs concentration graph, mean ± SD",> 100 µM
same,"Pathogen inhibition, % (P. carotovorum)","[4]; 300 µM peptide, modified YPD-P medium, vs control without peptide, triplicate, mean",42%
same,IC50,"[4]; read-out: IC50, μM P. carotovorum, peptide 10–300 µM, from activity vs concentration graph, mean ± SD",> 100 µM
AGHGKRYTGRG [HvDEFL4-1_67-77],Penetration of propidium iodide (PI) into Cr. neoformans cells,Cr. neoformans cells [5],37.84%
same,Number of Cr. neoformans cells in flow cytometry,Cr. neoformans cells [5],reduction in the number of Cr. neoformans cells
same,Membrane permeabilization of Cr. neoformans cells (PI staining),Cr. neoformans cells [1],induced membrane permeabilization
same,Membrane permeabilization of C. albicans cells (PI staining),C. albicans cells,induced membrane permeabilization
CC(C)[C@H](NC(=O)[C@H](CS)NC(=O)[C@H](CCCNC(=N)N)NC(=O)CNC(=O)CNC(=O)[C@H](CS)NC(=O)[C@H](CS)NC(=O)[C@@H]1CCCN1C(=O)[C@H](Cc1ccccc1)NC(=O)[C@@H](NC(=O)[C@@H](NC(=O)[C@H](CCCNC(=N)N)NC(=O)[C@H](CS)NC(=O)[C@@H](N)CCCCN)[C@@H](C)O)[C@@H](C)O)C(=O)O [Tk-AMP-K2_10-23] (H-KCRTTFPCCGGRCV-OH; N-terminus and C-terminus assumed),Inhibition of Cr. neoformans at the highest tested concentration,[6]; [8],complete inhibition
same,Penetration of propidium iodide (PI) into Cr. neoformans cells,Cr. neoformans cells [5],66.86%
same,Number of Cr. neoformans cells in flow cytometry,Cr. neoformans cells [5],reduction in the number of Cr. neoformans cells
same,Membrane permeabilization of Cr. neoformans cells (PI staining),Cr. neoformans cells [1],induced membrane permeabilization
same,Membrane permeabilization of C. albicans cells (PI staining),C. albicans cells,induced membrane permeabilization
PARGRPYTGRA [DEFL4-37_91-101],Activity against Cr. neoformans relative to DEFL4-37_90-102,"[6]; 300 µM (Figure 3), times less active",10 times
CC(C)C[C@H](NC(=O)[C@H](CCCNC(=N)N)NC(=O)[C@H](Cc1c[nH]cn1)NC(=O)[C@H](CO)NC(=O)[C@H](CC(N)=O)NC(=O)[C@H](CS)NC(=O)[C@H](CCC(=O)O)NC(=O)CN)C(=O)N[C@@H](CCC(=O)O)C(=O)N[C@@H](CCCNC(=N)N)C(=O)N[C@@H](CCCCN)C(=O)N[C@@H](CS)C(=O)N[C@@H](Cc1ccccc1)C(=O)N[C@@H](CS)C(=O)N[C@@H](CCCCN)C(=O)N[C@@H](CCCNC(=N)N)C(=O)N[C@H](C(=O)N[C@@H](CS)C(=O)O)[C@@H](C)O [DEFL1-40_65-82] (H-GECNSHRLERKCFCKRTC-OH),"Pathogen inhibition, % (C. albicans)","[2]; 300 µM peptide, YPD-P medium, 30 °C, 24 h, absorbance 594 nm, vs control without peptide, triplicate, mean",failed to suppress
CC[C@H](C)[C@H](NC(=O)[C@H](CCCCN)NC(=O)[C@H](CS)NC(=O)[C@H](Cc1ccc(O)cc1)NC(=O)CN)C(=O)N[C@@H](CO)C(=O)N[C@@H](CCCNC(=N)N)C(=O)N[C@@H](CS)C(=O)N[C@H](C(=O)N[C@@H](CS)C(=O)N[C@@H](CCC(N)=O)C(=O)N[C@@H](CCCNC(=N)N)C(=O)N[C@@H](CCC(=O)O)C(=O)N[C@@H](CS)C(=O)O)[C@@H](C)O [DEFL1-11_55-68] (H-GYCKISRCTCQREC-OH; N-terminus and C-terminus assumed),"Pathogen inhibition, % (Ps. savastanoi)",[7],failed to suppress
